Measured values from US20040197705A1, “Cyanide compound, optical filter, and optical recording material” (ASAHI DENKA CO., LTD., priority 2003, published 2004).

Key:
Format in all cases: physicochemical
[1] = Evaluation of solubility in methyl ethyl ketone (MEK); conditions: in methyl ethyl ketone (MEK) at 20° C.; % by weight; tested from 0.1 to 0.3% by 0.05%
Procedure: The test compound was added to MEK at 20° C. in an amount corresponding to a concentration varying from 0.1 to 0.3% by weight by 0.05% by weight to see whether it dissolved or not.

[2] = Decomposition temperature in TG-DTA; conditions: 100 ml/min nitrogen stream; temperature rise 10° C./min
Procedure: Decomposition Temperature in TG-DTA (100 ml/min nitrogen stream; temperature rise: 10° C./min): 281° C.

[3] = Absorption spectrum of optical filters containing the cyanine compound (λmax, half bandwidth); conditions: Example 3: PET-protected glass plate with dye-containing acrylic binder layer
Procedure: A binder composition having the above formulation was applied to a 188 μm thick PET film having been surface treated for adhesion improvement with a bar coater #9 and dried at 80° C. for 30 seconds. The PET film was hot bonded to a 0.9 mm thick alkali glass plate to prepare a PET-protected glass plate having a light absorbing dye-containing binder layer between the glass substrate and the PET film.

[4] = UV transmission and reflection spectra of spin-coated specimens (optical recording material); conditions: for Reflected Light Intensity at 650 nm: expressed relatively to that at λmax; for Reflected Light Intensity at 650 nm / Reflected Light λmax: incidence angle 5°; for Reflected Light λmax: specimen as in Evaluation Example 3; for Transmitted Light λmax: specimen spin coated on polycarbonate plate as in Evaluation Example 3
Procedure: (§1) The test compound shown in Table 2 below was dissolved in a 1:1 (by volume) mixed solvent of MEK and 2,2,3,3-tetrafluoropropan-1-ol to prepare a 1 wt % solution. The solution was applied to a 20 mm×20 mm polycarbonate plate by spin coating at 2000 rpm for 60 seconds to prepare a specimen. The UV absorption spectrum of the specimen was determined. The specimen was then irradiated with light of 55000 lux, and the exposure time required for the absorption retention (as defined in Evaluation Example 2) to decrease to 50% was measured.
Specimens were prepared in the same manner as in Evaluation Example 3. The UV transmission spectrum and the UV reflection spectrum (incidence angle: 5°) of the specimens were measured. In Table 4, the reflected light intensity at 650 nm is expressed relatively to that at λmax.

[5] = Evaluation of light resistance (absorption retention halving time); conditions: film spin coated on polycarbonate plate; light of 55000 lux; exposure time for absorption retention to decrease to 50%
Procedure: as §1

Solubility: insoluble at [1] | Decomposition Temperature in TG-DTA [2] [°C] | Half Bandwidth [3] [nm] | λmax [3] [nm] | Transmitted Light λmax [4] [nm] | Solubility: soluble at [1] | Absorption Retention Halving Time [5] [h] | Compound | Reflected Light Intensity at 650 nm [4] [%] | Reflected Light λmax [4] [nm]
insoluble at 0.1% |  |  |  |  |  |  | CC1=[N+](C)c2ccccc2/C1=C1/C(=O)C(c2c(C)n(C)c3ccccc23)=C1[O-] [Comp. Compound 1, reference compound] |  | 
 | 295 | 33 | 590 |  |  |  | Cc1[nH]c2ccc(F)cc2c1C1=C([O-])/C(=C/C2=[N+](C)c3ccccc3C2(C)C)C1=O [Compound No. 22] |  | 
 | 271 | 29 | 587 | 611 | soluble at 0.3% | 38 | CC(C)CC[N+]1=C(/C=C2\C(=O)C(c3cn(C)c4ccccc34)=C2[O-])C(C)(C)c2ccccc21 [Compound No. 5] | 95.9 | 656
insoluble at 0.1% |  |  |  |  |  |  | CCCCn1c(C)c(C2=C([O-])/C(=C3/C(C)=[N+](CCCC)c4ccccc43)C2=O)c2ccccc21 [Comp. Compound 2, reference compound] |  | 
 |  | 36 | 597 |  |  |  | Cc1c(C2=C([O-])/C(=C/C3=[N+](C)c4ccccc4C3(C)C)C2=O)c2cc([N+](=O)[O-])ccc2n1CCC(C)C [Compound No. 23] |  | 
 | 287 | 30 | 602 |  | soluble at 0.3% |  | Cc1c(C2=C([O-])/C(=C/C3=[N+](C)c4ccccc4C3(C)C)C2=O)c2ccccc2n1C [Compound No. 14] |  | 
< 0.2% | 259 |  |  |  | ≥ 0.15% |  | Cn1cc(C2=C([O-])/C(=C/C3=[N+](C)c4ccc5ccccc5c4C34CCCCC4)C2=O)c2ccccc21 [Compound No. 4] |  | 
 |  |  |  | 608 |  | 26 | CC(C)CCn1cc(C2=C([O-])/C(=C/C3=[N+](C)c4ccccc4C3(C)C)C2=O)c2ccccc21 [Compound No. 3] | 100 | 651
 | 273 | 34 | 606 |  | soluble at 0.3% |  | Cn1c(-c2ccccc2)c(C2=C([O-])/C(=C/C3=[N+](C)c4ccccc4C3(C)C)C2=O)c2ccccc21 [Compound No. 26] |  | 
